Entries after “also recorded” stand apart in the source; their conditions may differ.
Tests used:
human erythrocytes [1] = assay: ATP release from human erythrocytes (luciferin-luciferase assay); type: cell-based; settings: for ATP release on incubation with activator: activator of Gs or Gi alone; for Mas7-induced ATP release in the presence of insulin: MAS7 10 μM, insulin 1 μM pre-incubation; for ATP release in response to Gs/Gi activation or reduced O2 tension, in the presence of insulin: insulin at concentrations reported in plasma of humans with prediabetes
Protocol: (§1) Erythrocytes (20% hct) were incubated with Mastoparan 7 (10 μM) or its vehicle in the presence or absence of 1 uM insulin. ATP release from erythrocytes was measured at 5 minute intervals using the luciferan/luciferase assay. In separate studies, erythrocytes (50% hct) were incubated with vehicle, 10 uM cilostazol, 100 μM cilostazol, […], 3 uM insulin, and/or 10 uM Mastoparan 7 for determination of cAMP concentration. At timed intervals, 4 mL of ice cold ethanol containing 1 mM HCl was added to 1 mL of RBC suspension. After centrifugation at 14,000×g at 4° C. for 10 min., the supernatant was dried under vacuum. Samples were resuspended in assay buffer and cAMP concentration was determined in duplicate by EIA.
(§2) Protocol A: Washed erythrocytes are incubated with insulin (0.1 nM-1 μM, Humalog®), or its vehicle (saline) for 30 min [28, 29, 47, 60]. Erythrocytes are incubated with either iloprost (1 μM), isoproterenol (10 μM) (receptor-mediated activators of Gs) or mastoparan 7 (MAS7, 10 μM) (a direct activator of Gi) or their vehicle (saline). After 15 min, cAMP accumulation and ATP release will be determined.
Protocol C: To determine effects of direct activation of adenylyl cyclase and active cAMP analogs on ATP release from erythrocytes in the presence of insulin, washed erythrocytes are incubated with insulin (0.1 nM-1 μM) or its vehicle (saline). After 30 min, the cells are incubated with either the non-selective activator of adenylyl cyclase (AC) activity, forskolin (1 to 10 μM), or one of two active cAMP analogs that are resistant to degradation, SpcAMP (10 to 100 μM) or 8-bromo-cAMP (10 to 100 μM). ATP release will be measured at 5, 10 and 15 min after addition of forskolin or the active cAMP analogs. Controls: To ensure the effects of forskolin or the cAMP analogs are not due to effects of vehicle or time, identical experiments are conducted using their vehicles, N,Ndimethylformamide (DMF) or saline, respectively, in lieu of the active agent. Total intracellular ATP and free hemoglobin, a measurement of erythrocyte lysis, is determined.
(§3) Measurement of ATP: ATP was measured using the luciferin-luciferase assay. A 200 μL sample of an erythrocyte suspension was injected into a cuvette containing 100 μL of 10 mg/ml crude firefly tail extract and 100 μL of a 0.5 mg/ml solution of D-luciferin. The light emitted from the reaction of ATP with the crude firefly tail extract was measured using a luminometer designed to detect a wavelength of 565 nm. The peak light emitted was compared to an ATP standard curve generated on the day of the experiment.
Exposure of Erythrocytes to Reduced Oxygen Tension: Washed erythrocytes were diluted in Krebs buffer containing bicarbonate (4.7 KCl, 2.0 mM CaCl2, 140.5 mM NaCl, 1.2 mM MgSO4) and equilibrated for 30 minutes in a tonometer (15% O2, 5% CO2, balance N2) (normoxia). Erythrocytes were then exposed to hypoxia by changing the equilibrating gas to 5% O2, 5% CO2, balance N2. ATP released from the erythrocytes as well as pH and blood gas tensions were determined at 5, 10 and 15 min after exposure to the various gas tensions. In separate studies, samples were collected into acidified ethanol for cAMP measurement.

human erythrocytes [2] = assay: cAMP concentration in human erythrocytes (EIA); type: cell-based; settings: for cAMP production / synthesis on incubation with activator: activator of Gs or Gi alone; for Mas7-induced cAMP accumulation in the presence of insulin: MAS7 10 μM, insulin pre-incubation; for cAMP accumulation in response to Gs/Gi activation or reduced O2 tension, in the presence of insulin: insulin at concentrations reported in plasma of humans with prediabetes
Protocol: as §1, §2
After 30 min, the cells were incubated with either iloprost (1 μM), isoproterenol (10 μM), MAS7 (10 μM) or exposed to reduce O2 tension and cAMP accumulation and ATP release was determined. Control experiments: Identical experiments were performed with the vehicles for the various inhibitors. […] The concentrations chosen for rolipram and sildenafil PDE are those reported to be specific for the PDEs indicated.
Measurement of cAMP: 1 ml of erythrocyte suspension was added to 4 ml of ice cold ethanol containing 1 mM HCl and the mixture was centrifuged at 21,000×g for 10 minutes at 4° C. The supernatant was removed and stored overnight at −20° C. to precipitate remaining proteins. Samples were centrifuged a second time at 3,700×g for 10 minutes at 4° C. The supernatant was removed and dried under vacuum centrifugation. Concentrations of cAMP were determined by EIA.

human erythrocytes [3] = assay: Total intracellular ATP of erythrocytes; type: cell-based; settings: human erythrocytes pre-incubated with insulin 1 μM
Protocol: Measurement of Total Intracellular ATP: A known number of erythrocytes was lysed in distilled water at room temperature. ATP in the lysate, diluted 8,000 fold, was measured using ATP assay and the values normalized to ATP concentration per erythrocyte.

PDE4 = settings: reported in reference [54]; cited from earlier work
[4] = test system: RBCs derived from humans having type 2 diabetes; assay: MAS7-induced ATP release by RBCs from humans with type 2 diabetes; type: cell-based, human; settings: type 2 diabetic RBCs, stimulation via the Gi pathway (MAS7), compared with RBCs of healthy individuals, FIG. 7
Protocol: as §1, §3

With `CC#CCC(C)[C@H](O)/C=C/[C@@H]1[C@H]2C/C(=C/CCCC(=O)O)C[C@H]2C[C@H]1O` (stereo partly drawn) [iloprost, reference compound] the “ATP release on incubation with activator” value (human erythrocytes [1]) was “stimulate” and the “cAMP production / synthesis on incubation with activator” value (shortened to “cAMP production / synthesis”) (human erythrocytes [2]) was “stimulate”.

With `CC(C)NCC(O)c1ccc(O)c(O)c1` (stereo not drawn) [isoproterenol, reference compound] the “ATP release on incubation with activator” value (human erythrocytes [1]) was “stimulate” and the “cAMP production / synthesis” value (human erythrocytes [2]) was “stimulate”.

With Mastoparan 7 [reference compound] the “ATP release on incubation with activator” value (human erythrocytes [1]) was “ATP release”, the “ATP release on incubation with activator” value (human erythrocytes [1]; listed as MAS7) was “stimulate” and the “cAMP production / synthesis” value (human erythrocytes [2]) was “increased cAMP production”. The “cAMP production / synthesis” value (human erythrocytes [2]; listed as MAS7) was “stimulate”.

For “insulin: insulin incubated with erythrocytes; Humalog or regular human insulin in the protocols”, the “total ATP content” value (human erythrocytes [3]) was “absence of changes”, the “Mas7-induced ATP release in the presence of insulin” value (human erythrocytes [1]; FIG. 9) was “inhibit; also recorded: decline; also recorded: decreases; also recorded: reduces; also recorded: attenuated” and the “Mas7-induced ATP release in the presence of insulin” value (human erythrocytes [1]; FIG. 9, listed as Insulin) was “reduces”. The “ATP release in response to Gs/Gi activation or reduced O2 tension, in the presence of insulin” value (human erythrocytes [1]) was “inhibits; also recorded: attenuates”, the “ATP release in response to Gs/Gi activation or reduced O2 tension, in the presence of insulin” value (human erythrocytes [1]; listed as Insulin) was “attenuates” and the “ATP release in response to active cAMP analogs resistant to hydrolysis by PDEs, in the presence of insulin” value (human erythrocytes [1]; insulin pretreatment) was “no effect”. The “Mas7-induced cAMP accumulation in the presence of insulin” value (human erythrocytes [2]; FIG. 8) was “greater at lower (nM) insulin concentrations; also recorded: decline; also recorded: decreases; also recorded: reduces; also recorded: inhibition”, the “Mas7-induced cAMP accumulation in the presence of insulin” value (human erythrocytes [2]; FIG. 8, listed as Insulin) was “reduces” and the “cAMP accumulation in response to Gs/Gi activation or reduced O2 tension, in the presence of insulin” value (human erythrocytes [2]) was “inhibited; also recorded: limit; also recorded: decreases”. The “cAMP accumulation in response to Gs/Gi activation or reduced O2 tension, in the presence of insulin” value (human erythrocytes [2]; listed as Insulin) was “decreases”.

In the case of `O=C1CCc2cc(OCCCCc3nnnn3C3CCCCC3)ccc2N1` [cilostazol], the “concentrations inhibiting PDE4 activity relative to those used here” value (PDE4) is given as “ten-fold greater”, the “iloprost-induced cAMP accumulation after cilostazol pre-treatment” value (human erythrocytes [2]; FIG. 11) is given as “concentration-dependent increases” and the “basal cAMP levels” value (human erythrocytes [2]; in the presence of cilostazol) is given as “increased”. The “MAS7-induced ATP release by diabetic RBCs treated with cilostazol” value [4] was “normal levels of ATP” and the “MAS7-induced ATP release by diabetic RBCs treated with cilostazol” value ([4]; listed as CILO) was “not significantly different from the levels released by RBCs of healthy individuals”.

For `COc1ccc(C2CNC(=O)C2)cc1OC1CCCC1` (stereo not drawn) [rolipram, reference compound], the “iloprost-induced cAMP accumulation with rolipram” value (human erythrocytes [2]; rolipram 30 μM, n=6) was “no effect”.

Reference: US8084221B2, “Method of screening for a drug candidate that increases ATP release from RBCs stimulated via the Gs or Gi pathway” (Saint Louis University, priority 2006, dated 2011)
